The text below walks through data of US20110009435A1, “HETERO BICYCLIC CARBOXAMIDE DERIVATIVES AND THEIR PHARMACEUTICAL USE AND COMPOSITIONS” (Pfizer, Inc., priority 2007, published 2011).

Common to all, as to assay type: biochemical
One assay addresses T1, Human recombinant MMP-13 (Homo sapiens, UniProt P45452).
T1 construct: made in house; host or cells: baculovirus expression (insect cells)
The assay is described as follows: In vitro MMP inhibition assay, MMP-13 (fluorogenic peptide substrate cleavage, Ki). Conditions: human MMP-13, full length (FL); read-out: hMMP Ki 13/FL. The gist of the method: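 Baculovirus-expressed proenzyme, APMA- or trypsin-activated, preincubated 1 h at room temperature with inhibitor in pH 7.5 Tris/NaCl/CaCl2 buffer, 1% DMSO. Then 4 μM MCA/Dpa quenched peptide added; fluorescence rate read at 330/420 nm. Ki from Morrison-equation regression, substrate at or below Km, uncorrected.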

The target in a further assay is T2, Human recombinant MMP-7 (Homo sapiens, UniProt P09237).
T2 construct: 07/CD; made in house
T2 sequence (P09237 95-267): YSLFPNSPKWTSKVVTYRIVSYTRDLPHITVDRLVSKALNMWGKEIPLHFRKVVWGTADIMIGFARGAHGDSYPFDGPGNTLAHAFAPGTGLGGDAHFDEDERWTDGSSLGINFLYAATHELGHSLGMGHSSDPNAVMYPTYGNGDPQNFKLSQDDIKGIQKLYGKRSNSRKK
Nature of the assay: In vitro MMP inhibition assay, MMP-7 (fluorogenic peptide substrate cleavage, Ki). The following applies: human MMP-7 (CD); read-out: hMMP Ki 07/CD. Here is the method:
(§1) Matrix Metalloproteinase inhibitor compounds were analyzed in in vitro MMP Inhibition assays to determine their ability to inhibit the MMP cleavage of peptide substrates. Inhibition constants (Ki) were calculated from the assayed compound-MMP interactions.
(§2) Human recombinant MMP-1, MMP-2, MMP-3, MMP-7, MMP-9, MMP-12, MMP-13, MMP-14 and MMP-15 were used in these assays. The enzymes are prepared following known laboratory procedures. Protocols for the preparation and use of these enzymes are available in the scientific literature. See, e.g., Enzyme Nomenclature (Academic Press, San Diego, Calif., 1992) and the citations therein. See also Frije et al., J. Biol. Chem., 26(24), 16766-73 (1994).
The MMP-7 cDNA may be used to express the enzyme in E. coli inclusion bodies. Then the enzyme is solubilized in urea, purified on a preparative […] reverse phase HPLC column, and refolded in the presence of zinc acetate and purified for use. […]
The inhibitors are analyzed using a single low enzyme concentration with a single substrate concentration fixed at or below the Km. […] Apparent inhibitory constants are determined by non-linear regression of reaction velocity as a function of inhibitor and enzyme concentration using Morrison's equation, as described by Kuzmic, Anal. Biochem. 286, 45-50 (2000). […]

Another assay addresses T3, Human recombinant MMP-12 (Homo sapiens, UniProt P39900).
T3 construct: The catalytic domain of MMP-12 and MMP-15 enzymes were purchased commercially for these assays; purchased
Nature of the assay: In vitro MMP inhibition assay, MMP-12 catalytic domain (fluorogenic peptide substrate cleavage, Ki). Conditions: human MMP-12, catalytic domain (CD); read-out: hMMP Ki 12/CD. Here is the method: as §1, §2
The catalytic domain of MMP-12 and MMP-15 enzymes were purchased commercially for these assays.
The fluorogenic, methoxycoumarin-containing polypeptide substrate MCA-ArgProLeuGlyLeuDpaAlaArgGluArgNH2 was used as the MMP substrate in the MMP inhibition assays for human recombinant MMP-1, MMP-2, MMP-7, MMP-9, MMP-12, MMP-13, MMP-14 and MMP-15. Here, “MCA” is 7-methoxycoumarin-4-yl acetyl and “Dpa” is 3-(2,4-dinitrophenyl)-L-2,3-di-aminopropionyl group. In the absence of MMP inhibitory activity, the substrate is cleaved at the Gly-Leu peptide bond. The cleavage separates the highly fluorogenic peptide from the 2,4-dinitrophenyl quencher, resulting in an increase of fluorescent intensity.
For the human MMP-1, MMP-2, MMP-7, MMP-9, MMP-12, MMP-13, MMP-14 and MMP-15 assays, dilutions of the inhibitors (or salts thereof) were prepared in 100% dimethyl sulfoxide (DMSO). The stock solutions were diluted in Buffer A (100 mM Tris-HCl, 100 mM NaCl, 10 mM CaCl2, 0.005% polyoxyethylene 23 lauryl ether, pH 7.5) to obtain solutions with different compound concentrations, i.e., assay solutions with different concentrations of the assayed MMP inhibitory compound in 1% DMSO. The experiment controls contained the same amount of Buffer A/DMSO as the assayed sample, but contained no inhibitor.
To determine Ki, the inhibitor samples are incubated at room temperature for 1 hr in the presence of enzyme and then 4 μM of appropriate MMP substrate was added, and samples were analyzed on a Tecan SpectraFlour Plus plate reader. The excitation wavelength is 330 nm, and the emission (fluorescence) wavelength is 420 nm. In the absence of MMP inhibitory activity, the substrate is cleaved at the Gly-Leu bond resulting in an increase of relative fluorescence. Inhibition is observed as a reduced rate of increase in relative fluorescence.
The inhibitors are analyzed using a single low enzyme concentration with a single substrate concentration fixed at or below the Km. This protocol is a modification of method by Knight et al., FEBS Lett., 296(3), 263-266 (1992). Apparent inhibitory constants are determined by non-linear regression of reaction velocity as a function of inhibitor and enzyme concentration using Morrison's equation, as described by Kuzmic, Anal. Biochem. 286, 45-50 (2000). Modifications were made in the non-linear regression method to allow a common control reaction rate and effective enzyme concentration to be shared between all dose-response relationships on a given assay plate. Since the substrate concentration was chosen to be at or below the Km, the apparent Ki's from this analysis were reported as Ki's without correction for the influence of substrate.

T3 sequence (P39900 106-263 limits assumed): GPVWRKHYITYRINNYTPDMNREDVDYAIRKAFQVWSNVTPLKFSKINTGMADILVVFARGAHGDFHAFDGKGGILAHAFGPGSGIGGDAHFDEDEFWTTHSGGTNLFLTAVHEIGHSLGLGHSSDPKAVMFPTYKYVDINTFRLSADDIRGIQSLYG

Turning to `COc1cccc(CNC(=O)c2nc3ccc(F)c(OCCC4CCN(C(=O)CO)CC4)c3c(=O)[nH]2)c1` [Example 34, 6-fluoro-5-[2-(1-glycoloylpiperidin-4-yl)ethoxy]-N-(3-methoxybenzyl)-4-oxo-3,4-dihydroquinazoline-2-carboxamide], the Ki at Human recombinant MMP-13 is 0.000118 µM; at Human recombinant MMP-7, > 10 µM; at Human recombinant MMP-12, 6.53 µM.
